Data published in ChEMBL document CHEMBL3259816, “Interactions of cyclic and non-cyclic naphthalene diimide derivatives with different nucleic acids” (Bioorg Med Chem, 2014).
Activity calls are given as the source filed them. The rule behind the calls is not given here.

Legend:
[1] = Binding affinity to 5'-AGGG(TTAGGG)3-3' DNA (unknown origin) assessed as change in melting temperature by spectropolarimetry in presence of K+
[2] = Binding affinity to 5'-AGGG(TTAGGG)3-3' DNA (unknown origin) assessed as change in melting temperature by spectropolarimetry in presence of Na+
[3] = Binding affinity to double strand 5'-GGGAGGTTTCGC-3' and 5'-GCGAAACCTCCC-3' DNA (unknown origin) assessed as change in melting temperature by spectrophotometry in presence of K+
[4] = Binding affinity to double strand 5'-GGGAGGTTTCGC-3' and 5'-GCGAAACCTCCC-3' DNA (unknown origin) assessed as change in melting temperature by spectrophotometry in presence of Na+
[5] = Binding affinity to 5'-AGGG(TTAGGG)3-3' DNA (unknown origin) by Benesi-Hildebrand method in presence of K+
[6] = Binding affinity to 5'-AGGG(TTAGGG)3-3' DNA (unknown origin) by Benesi-Hildebrand method in presence of Na+
[7] = Binding affinity to double strand 5'-GGGAGGTTTCGC-3' and 5'-GCGAAACCTCCC-3' DNA (unknown origin) by Benesi-Hildebrand method in presence of K+
[8] = Binding affinity to double strand 5'-GGGAGGTTTCGC-3' and 5'-GCGAAACCTCCC-3' DNA (unknown origin) by Benesi-Hildebrand method in presence of Na+
[9] = Binding affinity to poly (dA-dT)2 dsDNA (unknown origin) assessed as change in melting temperature at 1:0.05 DNA/ligand ratio by absorbance melting method in presence of Na+
[10] = Binding affinity to poly (dA-dT)2 dsDNA (unknown origin) assessed as change in melting temperature at 1:0.1 DNA/ligand ratio by absorbance melting method in presence of Na+
[11] = Binding affinity to poly (dA-dT)2 dsDNA (unknown origin) assessed as change in melting temperature at 1:0.15 DNA/ligand ratio by absorbance melting method in presence of Na+
[12] = Binding affinity to poly (dA-dT)2 dsDNA (unknown origin) assessed as change in melting temperature at 1:0.3 DNA/ligand ratio by absorbance melting method in presence of Na+
Nucleic Acid [13] = assay: Binding affinity to double strand 5'-GGGAGGTTTCGC-3' and 5'-GCGAAACCTCCC-3' DNA (unknown origin) assessed as DNA intercalation at 0.5 to 6.75 uM by circular dichroism analysis in presence of K+; assay type: nucleic-acid assay
Nucleic Acid [14] = assay: Binding affinity to double strand 5'-GGGAGGTTTCGC-3' and 5'-GCGAAACCTCCC-3' DNA (unknown origin) assessed as DNA intercalation at 0.5 to 6.75 uM by circular dichroism analysis in presence of Na+; assay type: nucleic-acid assay
Nucleic Acid [15] = assay: Binding affinity to double strand 5'-GGGAGGTTTCGC-3' and 5'-GCGAAACCTCCC-3' DNA (unknown origin) assessed as DNA intercalation at 0.75 to 11.25 uM by circular dichroism analysis in presence of K+; assay type: nucleic-acid assay
Nucleic Acid [16] = assay: Binding affinity to double strand 5'-GGGAGGTTTCGC-3' and 5'-GCGAAACCTCCC-3' DNA (unknown origin) assessed as DNA intercalation at 0.75 to 11.25 uM by circular dichroism analysis in presence of Na+; assay type: nucleic-acid assay
Calf thymus DNA = assay: Binding affinity to calf thymus DNA assessed as DNA intercalation at 5 to 50 uM by circular dichroism analysis in presence of NaCl; assay type: nucleic-acid assay; conditions: Bos taurus
Nucleic Acid [17] = assay: Binding affinity to poly (dA-dT)2 dsDNA (unknown origin) assessed as DNA intercalation at 5 to 50 uM by circular dichroism analysis in presence of NaCl; assay type: nucleic-acid assay
Nucleic Acid [18] = assay: Binding affinity to poly (dG-dC)2 dsDNA (unknown origin) assessed as DNA intercalation at 5 to 50 uM by circular dichroism analysis in presence of NaCl; assay type: nucleic-acid assay
[19] = Stabilization of 5'-AGGG(TTAGGG)3-3' DNA (unknown origin) assessed as G-quadruplex formation at 1:0.3 to 1:4.5 DNA/ligand molar ratio by circular dichroism analysis in presence of KCl
[20] = Stabilization of 5'-AGGG(TTAGGG)3-3' DNA (unknown origin) assessed as G-quadruplex formation at 1:0.3 to 1:4.5 DNA/ligand molar ratio by circular dichroism analysis in presence of NaCl
[21] = Binding affinity to 5'-AGGG(TTAGGG)3-3' DNA (unknown origin) assessed as assessed as G-quadruplex formation at 2:1 DNA/ligand molar ratio by circular dichroism analysis in presence of KCl
[22] = Inhibition of telomerase (unknown origin) incubated for 60 mins at 30 degC followed by 5 mins at 95 degC by TRAP assay; set-up: species or system Homo sapiens
Escherichia coli [23] = assay: Binding affinity to Escherichia coli pUC19 DNA assessed as formation of supercoiled DNA at 0.4 to 2.4 uM after 1 hr by agarose gel electrophoresis
Escherichia coli [24] = assay: Binding affinity to Escherichia coli pUC19 DNA assessed as formation of supercoiled DNA at 1 to 5 uM after 1 hr by agarose gel electrophoresis

ΔTm [1] [°C]	ΔTm [2] [°C]	ΔTm [3] [°C]	ΔTm [4] [°C]	Kb [5] [×10⁶ /M]	Kb [6] [×10⁶ /M]	Kb [7] [×10⁶ /M]	Kb [8] [×10⁶ /M]	ΔTm [9] [°C]	ΔTm [10] [°C]	ΔTm [11] [°C]	ΔTm [12] [°C]	Activity (Nucleic Acid [13])	Activity (Nucleic Acid [14])	Activity (Nucleic Acid [15])	Activity (Nucleic Acid [16])	Activity (Calf thymus DNA)	Activity (Nucleic Acid [17])	Activity (Nucleic Acid [18])	Activity [19]	Structure (SMILES)	further results
6	1	5	5	1.4	0.7	1	1	2	4	7	13	Active	Active	Active	Active	Active	Active	Active	Active	CN(C)CCCN1C(=O)c2ccc3c4c(ccc(c24)C1=O)C(=O)N(CCCN(C)C)C3=O	Activity [20]: Active; Activity [21]: Active; EC50 [22]: 6 µM; Activity (Escherichia coli [23]): Active; Activity (Escherichia coli [24]): Active
9	3	10	10	3.7	0.9	2.6	2.5	9	14	18	24	Active	Active	Active	Active	Active	Active	Active	Active	O=C1NCCCN2CCN(CCCN3C(=O)c4ccc5c6c(ccc(c46)C3=O)C(=O)N(CCCN3CCN(CCCNC(=O)c4ccc1cc4)CC3)C5=O)CC2	Activity [20]: Active; Activity [21]: Active; EC50 [22]: 0.35 µM; Activity (Escherichia coli [23]): Active; Activity (Escherichia coli [24]): Active
